Results taken from ChEMBL document CHEMBL1137840, “A novel cyclic enkephalin analogue with potent opioid antagonist activity” (Bioorg Med Chem Lett, 2004).

Experiments:
[1] = molecular target: Kappa-type opioid receptor (Cavia porcellus, UniProt P41144); assay: Inhibitory concentration against Kappa opioid receptor of guinea pig ileum; type: tissue-based
[2] = Binding affinity towards Mu opioid receptor
[3] = Binding affinity towards Kappa opioid receptor
[4] = molecular target: Kappa-type opioid receptor (Cavia porcellus) (UniProt P41144); assay: Binding potency towards Kappa opioid receptor of guinea pig ileum; type: tissue-based
[5] = molecular target: Mu-type opioid receptor (Cavia porcellus) (UniProt P97266); assay: Binding potency towards Mu opioid receptor of guinea pig ileum; type: tissue-based
[6] = molecular target: Delta-type opioid receptor (Mus musculus) (UniProt P32300); assay: Binding potency towards Delta opioid receptor of mouse vas deferens; type: tissue-based
[7] = Binding affinity towards Opioid receptor mu 1

Mu-type opioid receptor (Cavia porcellus), sequence (P97266 whole entry): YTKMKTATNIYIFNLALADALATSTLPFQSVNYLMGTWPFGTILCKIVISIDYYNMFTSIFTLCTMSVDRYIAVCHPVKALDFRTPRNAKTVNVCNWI
Kappa-type opioid receptor (Cavia porcellus), sequence (P41144 whole entry): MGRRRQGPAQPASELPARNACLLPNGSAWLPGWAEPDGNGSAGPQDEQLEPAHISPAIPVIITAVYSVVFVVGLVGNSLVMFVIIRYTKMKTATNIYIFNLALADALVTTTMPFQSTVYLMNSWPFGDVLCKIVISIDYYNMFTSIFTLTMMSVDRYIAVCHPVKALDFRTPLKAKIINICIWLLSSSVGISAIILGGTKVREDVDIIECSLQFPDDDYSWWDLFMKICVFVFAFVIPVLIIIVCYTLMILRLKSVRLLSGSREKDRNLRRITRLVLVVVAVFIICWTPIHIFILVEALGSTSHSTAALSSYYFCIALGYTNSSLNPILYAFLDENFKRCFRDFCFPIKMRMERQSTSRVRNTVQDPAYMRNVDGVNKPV
Delta-type opioid receptor (Mus musculus), sequence (P32300 whole entry): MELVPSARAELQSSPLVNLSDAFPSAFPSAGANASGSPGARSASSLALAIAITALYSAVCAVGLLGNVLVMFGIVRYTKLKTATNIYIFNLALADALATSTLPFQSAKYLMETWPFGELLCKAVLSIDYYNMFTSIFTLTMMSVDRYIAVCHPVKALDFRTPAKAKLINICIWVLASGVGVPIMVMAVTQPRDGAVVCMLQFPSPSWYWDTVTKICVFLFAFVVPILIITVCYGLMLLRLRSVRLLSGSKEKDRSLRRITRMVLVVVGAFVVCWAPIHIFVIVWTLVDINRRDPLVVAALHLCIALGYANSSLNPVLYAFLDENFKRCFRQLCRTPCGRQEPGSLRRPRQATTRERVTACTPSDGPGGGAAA
Kappa-type opioid receptor, sequence (P41144 whole entry): as the sequence (P41144 whole entry) above

SMILES	IC50 [1] [nM]	Ki [2] [nM]	Ki [3] [nM]	Ke [4] [nM]	Ke [5] [nM]	Ke [6] [nM]	Ki [7] [nM]
Cc1cc(O)cc(C)c1C[C@H](N)C(=O)N[C@@H]1CSSC[C@H](C(N)=O)NC(=O)[C@H](Cc2ccc([N+](=O)[O-])cc2)NC(=O)CNC1=O	0.54	0.24	3.77				
Cc1cc(O)cc(C)c1[C@H](C)CC(=O)N[C@H]1CSSC[C@H](C(N)=O)NC(=O)[C@H](Cc2ccc([N+](=O)[O-])cc2)NC(=O)CNC1=O		94.4	6970	1630	845	3280	
Cc1cc(O)cc(C)c1CCC(=O)N[C@H]1CSSC[C@H](C(N)=O)NC(=O)[C@H](Cc2ccc([N+](=O)[O-])cc2)NC(=O)CNC1=O		4.79	299	22.6	3.68	63.3	
Cc1cc(O)cc(C)c1[C@@H](C)CC(=O)N[C@H]1CSSC[C@H](C(N)=O)NC(=O)[C@H](Cc2ccc([N+](=O)[O-])cc2)NC(=O)CNC1=O			49.5	5.81	1.4	55	2.1
